# Laboratory results published in patent publication US20220096515A1, “Methods and Formulations for Preventing Neurological or Psychiatric Disorders” (Huntington Medical Research Institutes, priority 2020, published 2022).
# Legend:
# [1] = tested on: neuronal cells isolated from the E15 CD1 forebrain; experiment: Neuronal cell proliferation and long-distance migration in vitro; type: cell-based, mouse
# Method: Isolation and primary culture of neuronal cells: Primary culture of embryonic GABAergic neurons from CD1 telencephalon or after the saline or NAD+ treatment paradigms were performed using established methods. Briefly, embryonic brains were extracted under a stereo microscope and placed into cold PBS. After removal of the pial membrane, the telencephalon was dissected from each embryonic brain. The telencephalon was minced into 1-2 mm slices in cold PBS. Minced telencephalon was treated with 0.1× trypsin/EDTA at 37° C. for 5 min. Trypsin treatment was stopped by adding FBS-DMEM media and DNase I consecutively. Dissociated cells were filtered with a 40 μm cell strainer and finally filtered cells were cultured in poly-D-lysine coated culture dishes with Neurobasal medium (Life technologies) with 1× B-27 (Life technologies) and 1× Glutamax (Life technologies).
# Neuronal migration assay: In preparation for cell migration assays, one well square culture inserts (ibidi GmbH) were placed in the center of a poly-Ornithine/Laminin coated 35 mm dish, to make a small rectangular patch that is labeled outside the dish. Embryonic neurons prepared from the saline and NAD+ treated groups were seeded in the inserts in Neurobasal medium, supplemented with 1× B-27 and 1× Glutamax. After the cells had attached, the inserts were removed to initiate cell migration in all 4 quadrants of the dish. After 24 hours, cells were fixed and labeled with anti-β-Tubulin antibody (1:2000, Biolegend). Neuronal migration was assessed by measuring the distance between the final positions of cells from the border of the rectangular patch was outlined on the first day, using ImageJ software.
# In one experiment, periventricular endothelial cells were isolated from E15 wildtype (CD1) forebrain and tested the effect of NAD^+ addition in vitro. Exogenous addition of 100 μM NAD^+ was able to initiate significant endothelial cell proliferation within 2 days of culture and a 35 mm culture dish was confluent within 4-6 days (FIGS. 2A-2D). […]
# [2] = tested on: Gabrb3^ECKO telencephalon; experiment: Prenatal NAD+ treatment (E12-E17), histology/IHC of E18 telencephalon; type: in vivo, mouse
# Text: Animals: Timed pregnant CD1 mice were purchased from Charles River laboratories, MA. Colonies of GAD65-GFP mice were maintained in our institutional animal facility. Tie2-cre mice and Gabrb3 floxed (Gabrb3^fl/fl) mice were obtained from Jackson Labs. The Tie2-cre transgene is known for uniform expression of cre-recombinase in endothelial cells during embryogenesis and adulthood. To selectively delete Gabrb3 in endothelial cells, Tie2-cre transgenic mice (males) were crossed to Gabrb3^fl/fl mice (females) to generate Tie2-cre; Gabrb3^fl/+ mice (males). These were further crossed with Gabrb3^fl/fl mice (females) to obtain the Gabrb3 conditional knock-outs (Tie2-cre; Gabrb3^fl/fl mice). The day of plug discovery was designated embryonic day 0 (E0). Animal experiments were in full compliance with the NIH Guide for Care and Use of Laboratory Animals and were approved by the HMRI and McLean Institutional Animal Care Committees.
# Histology, immunohistochemistry, and microscopic analysis: Paraffin immunohistochemistry (IHC) was performed on embryonic brains only while frozen section IHC was used on both embryonic and adult brains. Briefly, for paraffin IHC-E18 brains were fixed in zinc fixative (BD Biosciences PharMingen) for 24 h and processed for paraffin histology. Histological stainings with hematoxylin (Vector Laboratories) and eosin (Sigma) were performed on 8 μm coronal sections. Lectin histochemistry (with biotinylated isolectin B4, 1:50, Sigma) as well as IHC was performed on 20 μm sections. Primary antibodies used for IHC were as follows: anti-PHH3 (1:200, Millipore) and anti-NKX2.1, (1:50; Sigma) followed by secondary detection with AlexaFluor conjugates (Invitrogen). DAPI (Vector Laboratories) was used to label nuclei. For frozen section IHC, E18 and P90 brains were removed, fixed in 4% PFA for 24 hours, cryo-protected in sucrose gradient, embedded into OCT medium for frozen blocks; sectioned at 40 μm on a cryostat and immunostained with anti-GABA (1:80, Sigma) and anti -PROX1 (1:80, Millipore) antibodies. Twenty sections from each brain were used for IHC and histology experiments. Uniform penetration of antibodies or stains throughout the section was ascertained and quality of the staining in each digital section was examined. […] All low and high-magnification images were obtained from an FSX100 microscope (Olympus).
# Morphometry: A stereological point grid was superimposed on digital images of biotinylated isolectin-B4+ vessels using ImageJ software. The ratio between points falling on blood vessels and on brain tissue was calculated for each section, and average values were obtained.
# This vascular deficit in the embryonic telencephalon persisted in the adult cerebral cortex with larger vessel diameters likely correlating with increased perfusion and indicative of functional changes in blood flow in Gabrb3^ECKO vessels. A summary of the embryonic and postnatal phenotype highlights (FIG. 3A) the importance of the endothelial GABA pathway for telencephalic angiogenesis, and for maintaining neuro-vascular interactions. Therefore, given its pro-angiogenic properties (FIGS. 2A-2J), NAD^+ treatment during the prenatal period was tested for its ability to improve angiogenesis in the Gabrb3^ECKO telencephalon. The periventricular ventral-dorsal angiogenesis gradient is established by E11, after which neuronal cells originating from ventricular zones navigate along radial and tangential courses, to adopt final laminar positions and integrate into specific brain circuits. Therefore, the approach was to target only the critical window of mouse prenatal brain development: E12 to E17. In the Gabrb3^ECKO telencephalon, the periventricular vessel gradient is formed normally at E11, but reductions in vascular density and abnormal vascular profiles are observed from E13 onward. […]
# [3] = tested on: Gabrb3^ECKO mice; experiment: Three-chamber social communication test; type: in vivo, mouse
# Method: Behavioral Experiments: Mice were housed in our animal facility with a 12-hour light cycle with ad libitum access to food and water. Offspring stayed with their mothers until weaning at PND 21 after which males and females were separated. Before all behavioral testing, mice were acclimated to the testing room for 1 hour. Behavioral assays were performed according to established protocols referenced here: self-grooming, light-dark box, tail suspension test, Y-maze, open field locomotion activity, three chamber social interaction test and nest building with nestlets and with shredded paper. Both males and females were used for all behavioral assays. Experimenters scoring behaviors were blinded to the genotypes and treatment. Sample sizes for each assay are noted in figure legends.
# This is indicative of rescue of social motivation, memory and novelty exploration in NAD^+-treated Gabrb3^ECKO mice (FIG. 14L).
structure (smiles),measurement,setting,value
NC(=O)c1ccc[n+]([C@@H]2O[C@H](COP(=O)([O-])OP(=O)(O)OC[C@H]3O[C@@H](n4cnc5c(N)ncnc54)[C@H](O)[C@@H]3O)[C@@H](O)[C@H]2O)c1 [NAD^+],neuronal cell proliferation,[1]; NAD^+ addition,an increase in cell proliferation
same,long-distance migration of neuronal cells,"[1]; NAD^+ addition, neurons alone",increased long-distance migration of neuronal cells
same,long-distance migration of neuronal cells,[1]; neurons seeded on periventricular endothelial cells,more robust
same,periventricular vessel densities,"[2]; 10 mg in 100 μl saline i.p. daily to pregnant dams E12-E17, E18, vs saline-treated Gabrb3^ECKO",significant improvement in periventricular vessel densities
same,NKX2.1 expression in MGE,[2]; E18,significantly enriched in the MGE
same,PROX1 expression,[2]; E18,significantly increased
same,number of PHH3^+ cells at VZ/SVZ surface of ventral telencephalon,[2]; E18,significantly increased the number of PHH3^+ cells
same,profile of GABAergic neurons (GABA immunoreactivity),[2]; E18,restored
same,vascular patterns around lateral ventricle / ganglionic eminence,"[2]; E18, 20 μm sections",uniform vascular patterns were restored
same,cell cluster in MGE (H&E),"[2]; NAD^+-treated Gabrb3^ECKO mice, E18",a cluster of cells were observed in the medial ganglionic eminence (MGE)
same,overall morphology of telencephalon (H&E),"[2]; treatment E12 to E17, E18",significantly improved the overall morphology
same,sociability: stranger mouse vs inanimate object,[3]; sociability phase,interacted with the stranger mouse for a significantly longer duration than with the inanimate object
same,social novelty: stranger 2 vs familiar stranger 1,[3]; social novelty phase,marked preference for stranger 2
